Source: patent publication US20200262991A1, “Method for Tuning Topology of Polymer Particles” (UNIVERSITY OF SOUTH CAROLINA, priority 2019, published 2020)

Test system: 3T3-L1 adipocytes
Test: Oil Red O lipid content assay in differentiated 3T3-L1 adipocytes
Type: cell-based, mouse
Details: 60 μM free resveratrol dissolved in ethanol, 48 hours
Procedure: 3T3-L1 fibroblasts (ATCC), were differentiated into adipocytes following ATCC's protocol, with slight modifications. Briefly, 3T3-L1 cells were seeded in 6 well plates at 80,000 cells/well and cultured in DMEM supplemented with 10% SuperCalf Serum and 1% Pen/Strep. 48 hours after confluence was reached, media was exchanged with “differentiation media” consisting of DMEM supplemented with 10% FBS, 10 μg/mL bovine insulin, 0.25 μM dexamethasone, and 0.5 mM IBMX. 48 hours after differentiation media was added, media was exchanged for DMEM supplemented with 10% FBS and 10 μg/mL bovine insulin. After another 48 hours, media was exchanged for DMEM supplemented with 10% FBS. Cells were then cultured until treatment with particles, which occurred 9 days after exposure to the differentiation media. […] Absorbance of extracted Oil Red O was measured at 500 nm using a spectrophotometer. Bioactivity of the resveratrol following the fabrication process was determined. Specifically, the ability of the resveratrol particles to induce lipolysis in differentiated 3T3-L1 adipocytes was determined by measuring lipid content with an Oil Red O assay. […] Lipid content was visualized with Oil Red O, a lipophilic dye, (FIG. 3 at A-F) and lipid content was quantified by extracting the dye (FIG. 3 at G) and measuring the solution's absorbance (FIG. 3 at H).

Oc1ccc(/C=C/c2cc(O)cc(O)c2)cc1 [resveratrol, 3,5,4′-trihydroxy-trans-stilbene]
Oil Red O staining (intracellular lipid content): decreased Oil Red O staining
